From US9296687B2, “Modulators of HSP70/DnaK function and methods of use thereof” (The Trustees of the University of Pennsylvania, priority 2008, dated 2016)

Assays:
[1] = test system: MCF7 human breast carcinoma cells; assay: MTT assay, PES followed by 17-AAG; format: cell-based; conditions: 5 μM PES 1 h, then 17-AAG 47 h
Protocol: FIG. 17. PES impairs the proteasome system. (A) Cell-based 20S proteasome activity assay of H1299 or A875 human tumor cells treated with DMSO, 20 μM PES, 100 nM Velcade (proteasome inhibitor), 1 μM 17-AAG (HSP90 inhibitor), 5 μM CQ (lysosome inhibitor), or 20S proteasome inhibitor epigallocatechin gallate (EGCG). Each graphical representation indicates the mean±SD of at least three independent cultures relative to control (DMSO-treated) cells. (B) Cell extracts from SKBR3 human breast carcinoma cells, treated either with 20 μM PES or 1 μM 17-AAG for 24 h, were immunoprecipitated (IP) using anti-HSP70 or anti-HSP90 antibody. […] MTT assays of MCF7 human breast carcinoma cells pretreated with DMSO, or 5 μM PES for 1 h, followed by the addition of indicated amount of 17-AAG for 47 h. The results represent the mean±SD of at least three independent analysis of cultures relative to control (DMSO-treated) cells. […]
Cell viability assays were performed using an MTT (methyl thiazolyl tetrazolium) colorimetric assay (Roche Applied Science, Cat. No. 11 465 007 001), with the following modifications. […] The metabolized insoluble formazan crystals were then solubilized using 0.5 ml of the Solubilization solution (10% SDS in 0.01M HCl) per well, and the resulting colored solutions were spectrophotometrically quantified at an absorbance of 570 nm.

p62/SQSTM1, LC3 = assay: Autophagy markers in cultured cells (vacuoles, LC3-II, p62/SQSTM1, electron microscopy); format: cell-based, human
MTT cell viability assay = format: cell-based, human; conditions: human; 20 μM, all tumor cell lines examined; read-out: loss of cell viability
Protocol: (§1) Cell viability assays were performed using an MTT (methyl thiazolyl tetrazolium) colorimetric assay (Roche Applied Science, Cat. No. 11 465 007 001), with the following modifications. Briefly, cells (1×10^4) were plated into 24 well-assay plates in 0.5 ml media and allowed to attach overnight. […] After the incubation period, 50 μl of the water-soluble MTT labeling reagent [3-[4,5-dimethylthiazol-2-yl]-2,5-diphenyl tetrazolium bromid] were added to the cells, and the cells were incubated for 4 h in a humidified chamber at 37° C. with 5% CO2. The metabolized insoluble formazan crystals were then solubilized using 0.5 ml of the Solubilization solution (10% SDS in 0.01M HCl) per well, and the resulting colored solutions were spectrophotometrically quantified at an absorbance of 570 nm.

tumor cell lines = assay: MTT cell viability assay; format: cell-based, human
Protocol: as §1

HSP70 = HSP70 (Homo sapiens, UniProt P0DMV8); assay: Capture of HA-tagged HSP70 constructs from transfected H1299 cells with biotinylated compound; format: binding; design: expressed in transfected cells; host or cells: H1299; conditions: biotinylated compound, 6 hours
Chain of HSP70 (P0DMV8 2-641): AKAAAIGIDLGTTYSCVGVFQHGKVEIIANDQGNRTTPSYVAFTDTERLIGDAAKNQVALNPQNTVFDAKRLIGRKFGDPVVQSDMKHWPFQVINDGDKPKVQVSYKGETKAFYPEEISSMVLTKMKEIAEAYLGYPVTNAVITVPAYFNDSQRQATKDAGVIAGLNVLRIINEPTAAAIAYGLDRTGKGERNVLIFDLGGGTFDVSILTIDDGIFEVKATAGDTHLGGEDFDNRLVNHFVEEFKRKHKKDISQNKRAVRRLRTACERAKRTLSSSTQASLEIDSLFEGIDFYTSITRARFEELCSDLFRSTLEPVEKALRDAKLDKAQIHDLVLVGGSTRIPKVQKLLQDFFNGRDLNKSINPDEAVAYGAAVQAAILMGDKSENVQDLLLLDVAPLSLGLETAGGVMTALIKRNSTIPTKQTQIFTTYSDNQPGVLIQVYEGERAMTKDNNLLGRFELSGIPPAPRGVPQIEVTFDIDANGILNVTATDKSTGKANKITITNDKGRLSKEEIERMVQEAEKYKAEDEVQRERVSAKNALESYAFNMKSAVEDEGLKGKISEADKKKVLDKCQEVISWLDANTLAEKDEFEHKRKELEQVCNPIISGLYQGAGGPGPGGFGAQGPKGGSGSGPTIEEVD
Protocol: FIG. 1. PES Binds to HSP70. (A) Whole cell extracts (WCE) prepared from A875 and BCL-xL over-expressing U2OS human osteosarcoma cells (BX-U2OS) cells, treated with Biotin or Biotin-PES (B-PES), were captured using NeutrAvidin agarose resins. HSP70-family proteins were identified as the major product in the excised band of ˜70 kDa shown in both Coomassie gels. (B and C) WCE were prepared from the cell lines indicated following 24 h treatment with 20 μM Biotin or B-PES and examined for the expression of proteins indicated (left panel of B and C) by western blot analysis; note that different exposure times were used to visualize these proteins. […] (D) In vitro evidence for an interaction between B-PES and HSP70. Full-length human HSP70 and human HSP90 proteins were in vitro translated in the presence of ^35S-methionine, mixed with B-PES coupled to NeutrAvidin resins, and eluted using 100 mM DTT. The resulting DTT eluates were separated by polyacrylamide gel electrophoresis (SDS-PAGE) and visualized by autoradiography. (E) B-PES interacts with the C-terminal region of HSP70. H1299 cells were transfected with the indicated hemagglutinin (HA)-tagged constructs and exposed to B-PES. B-PES containing complexes were captured by NeutrAvidin Resins, eluted following 100 mM DTT treatment, and immunoblotted with anti-HA antibody following SDS-PAGE. (F) Non-transformed human IMR90 fibroblasts or H1299 lung carcinoma cells were treated with the indicated concentrations of PES for 24 h and cell viability was determined by MTT assays. (G) WCE were prepared from the cell lines indicated following 5 hr treatment with 20 μM PES or B-PES and examined for the expression of proteins indicated (left panel) by western blot analysis; note that different exposure times were used to visualize these proteins. B-PES-containing complexes were captured by NeutrAvidin resins, eluted following 50 mM DTT treatment, and immunoblotted using the indicated antibodies.
The free amide group of PES-Cl was biotinylated and added to HA-tagged HSP70-transfected H1299 cells. The treatment of the cells occurred for 6 hours. The complexes were pulled down with NeutrAvidin beads, eluted with 100 mM DTT treatments, separated with SDS-PAGE and detected with anti-HA antibody (Millipore) by Western blot.
Docking studies were performed using the C-terminal HSP70 crystal structure (FIG. 32) to elucidate the PES binding site in silico (FIG. 33). Blind docking methods were used in the program AutoDock to locate potential PES binding sites. These methods use a course grid docking approach, encompassing the entire protein, to identify favorable binding sites using a known binding ligand, and are examined by hand to support the AutoDock data. […]

Scc61 cells = assay: Colony formation assay with gamma radiation; format: cell-based, human; conditions: PES + 2 Gy
Protocol: (§2) Fadu or Scc 61 (squamous cell carcinoma of the head and neck) cell lines were grown in DMEM supplemented with 10% fetal bovine serum and antibiotics. Cells were pre-treated with PES (10 μM) for 24 hr after which they were subject to gamma radiation (either 2 or 10 Gy) and plated at different densities in 6 well plates; the wells depicted were plated at 2000 cells/well. After 10 days, colonies were stained with crystal violet.

FADU cells = assay: Colony formation assay with gamma radiation; format: cell-based, human; conditions: PES 10 μM + 10 Gy
Protocol: as §2

NS(=O)(=O)C#Cc1ccccc1 [PES, 2-Phenylethynesulfonamide]
cell killing by 17-AAG [1]: sensitizes cells to cell killing by 17-AAG | LC3-II level (p62/SQSTM1, LC3; 20 μM): higher levels of LC3-II | autophagosomes and autophagolysosomes by electron microscopy (p62/SQSTM1, LC3; 20 μM, 7 or 24 h): rapid and substantial increase in multiple double-membrane autophagosomes and single-membrane autophagolysosomes | intracytoplasmic vacuoles (p62/SQSTM1, LC3; 24 h): progressive accumulation of intracytoplasmic vacuoles | p62/SQSTM1 oligomers in soluble and detergent-insoluble fractions (p62/SQSTM1, LC3; 24 h, PES 20 μM, Velcade 100 nM, CQ 50 μM, 17-AAG 15 nM): higher molecular weight forms of p62/SQSTM1 in both the soluble and detergent-insoluble fractions | p62/SQSTM1 accumulation and oligomerization (p62/SQSTM1, LC3; H1299 cells, increasing concentrations, 24 h): notable increase in p62/SQSTM1 accumulation and oligomerization | p62 oligomerization and LC3-II accumulation (p62/SQSTM1, LC3; IMR90 cells, 24 h): only a modest degree of p62 oligomerization and LC3-II accumulation | interaction between LC3 and p62/SQSTM1 (p62/SQSTM1, LC3; IP-WB, MiaPaCa2, A875): enhanced the interaction | accumulation and oligomerization of p62/SQSTM1 (p62/SQSTM1, LC3; western blot): promotes an accumulation and oligomerization of p62/SQSTM1 in a time- and dose-dependent manner | cytotoxicity at 20 μM (MTT cell viability assay): > 50% | IC50 (tumor cell lines; Homo sapiens, various tumor cell lines, read-out: half maximal concentration to exert cytotoxic effect (IC50)): 4 to 10 µM | cell viability, dose response (tumor cell lines; all tumor cell lines examined): dose-dependent loss of cell viability | interaction with HA-tagged HSP70 (HSP70): interact with HSP70 | colony formation with radiation (Scc61 cells): effectively diminished the capacity of these cells to form colonies | colony formation with radiation (FADU cells): combine effectively to reduce the capacity to form colonies
